In patent US20050137220A1 (Pharmacia Corporation, priority 2003, published 2005) one finds IC50 data, which are given here for 30 compounds.

Molecules are shown by their SMILES. Values joined by “and” are separate entries in the source; they are usually repeats but may differ in a detail not shown here. Equal entries are not always repeated. Structures can show the parent of a compound that is named as a salt.

MK-2, sequence (P49137 whole entry, species assumed): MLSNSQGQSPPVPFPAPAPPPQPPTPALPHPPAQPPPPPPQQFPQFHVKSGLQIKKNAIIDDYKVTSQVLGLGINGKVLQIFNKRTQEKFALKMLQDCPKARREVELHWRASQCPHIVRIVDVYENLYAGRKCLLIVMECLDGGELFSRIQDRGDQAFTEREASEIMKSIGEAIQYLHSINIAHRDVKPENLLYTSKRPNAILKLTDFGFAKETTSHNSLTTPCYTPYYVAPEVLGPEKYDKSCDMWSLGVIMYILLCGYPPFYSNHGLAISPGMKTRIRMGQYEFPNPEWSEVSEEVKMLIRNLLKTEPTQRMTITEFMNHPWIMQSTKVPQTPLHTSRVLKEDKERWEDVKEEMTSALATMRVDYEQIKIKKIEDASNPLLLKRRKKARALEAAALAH

The assay concerns the target MK-2 (Homo sapiens, UniProt P49137). In words: Determination of MK-2 IC50 (phosphorylation of HSP-peptide, anion exchange resin capture assay). Format: biochemical. The conditions noted are these: additional values are replicate IC50 experiments; mixture of stereoisomers implied unless otherwise noted; read-out: MK-2 Avg. IC50.
With `COC(=O)c1ccc2[nH]c3c(c2c1)CCNC3=O` [Example 270, methyl 1-oxo-2,3,4,9-tetrahydro-1H-beta-carboline-6-carboxylate], the IC50 was more than 200 µM.
As for `CCOC(=O)c1ccc(COc2ccc3[nH]c4c(c3c2)CCNC4C(=O)O)o1` (stereo not drawn) [Example 133, 6-{[5-(ethoxycarbonyl)-2-furyl]methoxy}-2,3,4,9-tetrahydro-1H-beta-carboline-1-carboxylic acid], the IC50 worked out at 105 µM.
In the case of `COC(=O)c1cccc2[nH]c3c(c12)CCNC3C(=O)O` (stereo not drawn) [Example 238, 5-(methoxycarbonyl)-2,3,4,9-tetrahydro-1H-beta-carbolin-1-carboxylic acid hydrate] it was more than 200 µM; in that of `COC(=O)c1ccc(COc2ccc3[nH]c4c(c3c2)CCNC4C(=O)O)cc1` (stereo not drawn) [Example 119, 6-{[4-(methoxycarbonyl)benzyl]oxy}-2,3,4,9-tetrahydro-1H-beta-carboline-1-carboxylic acid hydrochloride], 71.9 µM; in that of `O=C(O)C1NCCc2c1[nH]c1ccc(OCc3ccccn3)cc21` (stereo not drawn) [Example 101, 6-(pyridin-2-ylmethoxy)-2,3,4,9-tetrahydro-1H-beta-carboline-1-carboxylic acid hydrochloride], 39.9 µM.
Take `NNC(=O)c1cccc2[nH]c3c(c12)CCNC3C(=O)O` (stereo not drawn) [Example 200, 5-(hydrazinocarbonyl)-2,3,4,9-tetrahydro-1H-beta-carboline-1-carboxylic acid trifluoroacetate]: the half-maximal inhibitory concentration (IC50) is more than 200 µM.
In the case of `O=C(O)C1NCCc2c1[nH]c1ccc(OCc3ccc4ccccc4c3)cc21` (stereo not drawn) [Example 127, 6-(2-naphthylmethoxy)-2,3,4,9-tetrahydro-1H-beta-carboline-1-carboxylic acid hydrochloride] it was 91.3 µM; in that of `O=C(O)C1NCCc2c1[nH]c1ccc(OCc3ccc(Cl)cc3)cc21` (stereo not drawn) [Example 136, 6-[(4-chlorobenzyl)oxy]-2,3,4,9-tetrahydro-1H-beta-carboline-1-carboxylic acid], 112 µM; in that of `COc1ccc2[nH]c3c(c2c1)CCNC3C(=O)NN` (stereo not drawn) [Example 161, 6-methoxy-2,3,4,9-tetrahydro-1H-beta-carboline-1-carbohydrazide], more than 200 µM.
In the case of `COc1ccc2[nH]c3c(c2c1)CCN1C(=O)NC(=O)C31` (stereo not drawn) [Example 158, 8-methoxy-5,6,11,11b-tetrahydro-1H-imidazo[1′,5′:1,2]pyrido[3,4-b]indole-1,3(2H)-dione] it was 175 µM.
In the case of `CN1C(=O)C(=O)c2c(n(C)c3ccccc23)C1=O` [Example 263, 1H-Pyrido[3,4-b]indole-1,3,4(2H,9H)-trione, 2,9-dimethyl- or 2,9-dimethyl-1H-beta-carboline-1,3,4(2H,9H)-trione], the half-inhibitory concentration (IC50) is more than 200 µM.
The figure for `Cc1ccc2[nH]c3c(c2c1)CCNC3C(=O)O` (stereo not drawn) [Example 216, 6-methyl-2,3,4,9-tetrahydro-1H-beta-carboline-1-carboxylic acid hydrochloride] is more than 200 µM; for `COc1ccc2[nH]c3c(c2c1)CC(Cc1ccccc1)NC3C(=O)O` (stereo not drawn) [Example 193, 3-benzyl-6-methoxy-2,3,4,9-tetrahydro-1H-beta-carboline-1-carboxylic acid] it is more than 200 µM.
The figure for `O=C(O)C1NCCc2c1[nH]c1ccc(OCCc3ccccc3)cc21` (stereo not drawn) [Example 87, 6-(2-phenylethoxy)-2,3,4,9-tetrahydro-1H-beta-carboline-1-carboxylic acid hydrochloride] is 27.9 µM; for `COc1ccc2c3c([nH]c2c1)C(C(=O)O)NCC3` (stereo not drawn) [Example 217, 7-methoxy-2,3,4,9-tetrahydro-1H-beta-carboline-1-carboxylic acid hydrochloride] it is more than 200 µM; for `COC(=O)c1cccc(COc2ccc3[nH]c4c(c3c2)CCNC4C(=O)O)c1` (stereo not drawn) [Example 159, 6-{[3-(methoxycarbonyl)benzyl]oxy}-2,3,4,9-tetrahydro-1H-beta-carboline-1-carboxylic acid hydrochloride] it is 182 µM.
In the case of `O=C(O)C1NCCc2c1[nH]c1c(OCc3ccccc3)cccc21` (stereo not drawn) [Example 194, 8-(benzyloxy)-2,3,4,9-tetrahydro-1H-beta-carboline-1-carboxylic acid] it was more than 200 µM; in that of `COc1ccc2[nH]c3c(c2c1)CCNC3[C@H](O)CO` (stereo partly drawn) [Example 239, (1S)-1-(6-methoxy-2,3,4,9-tetrahydro-1H-beta-carbolin-1-yl)ethane-1,2-diol trifluoroacetate], more than 200 µM; in that of `O=C(O)C1NCCc2c1[nH]c1ccc(OCC3CCCCC3)cc21` (stereo not drawn) [Example 198, 6-(cyclohexylmethoxy)-2,3,4,9-tetrahydro-1H-beta-carboline-1-carboxylic acid], more than 200 µM.
For the compound `O=C1NCCc2c1[nH]c1ccc([N+](=O)[O-])cc21` [Example 253, 6-nitro-2,3,4,9-tetrahydro-1H-beta-carbolin-1-one], the IC50 is more than 200 µM.
As to `COc1ccc2[nH]c3c(c2c1)C(Cc1ccc(CO)cc1)CNC3C(=O)O` (stereo not drawn) [Example 114, 4-[4-(hydroxymethyl)benzyl]-6-methoxy-2,3,4,9-tetrahydro-1H-beta-carboline-1-carboxylic acid], the half-maximal inhibitory concentration (IC50) was found to be 61.4 µM.
In the case of `COc1ccc2c(c1)c1c(n2C)C(C(=O)O)NCC1` (stereo not drawn) [Example 182, 6-methoxy-9-methyl-2,3,4,9-tetrahydro-1H-beta-carboline-1-carboxylic acid] it was more than 200 µM.
In the case of `Cc1ccc2[nH]c3c(c2c1)CCC/C3=N\O` [Example 123, 6-methyl-2,3,4,9-tetrahydro-1H-carbazol-1-one oxime], the IC50 is 82.9 µM and 88.1 µM.
As to `COC(=O)C1c2[nH]c3ccc(OC)cc3c2CCN1C(C)=O` (stereo not drawn) [Example 232, methyl 2-acetyl-6-methoxy-2,3,4,9-tetrahydro-1H-beta-carboline-1-carboxylate], the IC50 is more than 200 µM.
`O=C(O)COc1ccc2[nH]c3c(c2c1)CCNC3C(=O)O` (stereo not drawn) [Example 98, 6-(carboxymethoxy)-2,3,4,9-tetrahydro-1H-beta-carbolin-1-carboxylic acid]: the half-maximal inhibitory concentration (IC50) was 35.5 µM.
The figure for `CCOc1cc([N+](=O)[O-])c2[nH]c3c(c2c1)CCNC3=O` [Example 255, 6-ethoxy-8-nitro-2,3,4,9-tetrahydro-1H-beta-carbolin-1-one] is more than 200 µM; for `CCCC1Cc2c([nH]c3ccc(OC)cc23)C(C(=O)O)N1` (stereo not drawn) [Example 190, 6-methoxy-3-propyl-2,3,4,9-tetrahydro-1H-beta-carboline-1-carboxylic acid] it is more than 200 µM; for `COC(=O)C1c2[nH]c3ccc(OC)cc3c2CCN1C(=O)OC(C)(C)C` (stereo not drawn) [Example 234, 2-tert-butyl 1-methyl 6-methoxy-1,3,4,9-tetrahydro-2H-beta-carboline-1,2-dicarboxylate] it is more than 200 µM.
In the case of `O=C(O)C1NCCc2c1[nH]c1cc(F)ccc21` (stereo not drawn) [Example 214, 7-fluoro-2,3,4,9-tetrahydro-1H-beta-carboline-1-carboxylic acid hydrochloride], the IC50 was more than 200 µM.
In the case of `COc1ccc2[nH]c3c(c2c1)CCNC3(Cc1ccccc1)C(=O)O` (stereo not drawn) [Example 241, 1-benzyl-6-methoxy-2,3,4,9-tetrahydro-1H-beta-carboline-1-carboxylic acid hydrochloride] it was more than 200 µM.

Usually IC50 stands for the midpoint of a concentration-inhibition curve.
